As a reminder, the IC50 is the concentration at which inhibition is half-maximal.

Holding throughout (assay): Anti-proliferative assay, standard CCK-8 method
Assay type in all cases: cell-based, human
Background: Tetrazolium assays rely on reduction of a dye to a coloured formazan, in cell work by metabolically active cells.

The test system of one test is A549 cells. The following applies: Homo sapiens, mean ± SD of at least three independent experiments, read-out: Proliferative inhibition (IC50, μM) A549. An excerpt: (§1) All reagents and solvents met the criteria of analytical reagents before use. All cancer cell lines (A549, human non-small-cell lung cell line; HT-29, human colonic adenocarcinoma cell line; MCF-7, human breast cancer cell line) were purchased from Stem Cell Bank, Chinese Academy of Sciences. […] ADP-Glo™ kinase assay kits were provided by Promega (Beijing) Biotech Co., Ltd. (Beijing, China). All kinase subtypes were supplied by SignalChem (BC, Canada).
(§2) The designed 4-anilinoquinazoline derivatives were evaluated for their antitumor bioactivities in vitro against three human tumor cell lines (A549, HT-29, and MCF-7) using the standard CCK-8 method. The CCK-8 method is based on WST-8 dye, 2-(2-methoxy-4-nitrophenyl)-3-(4-nitrophenyl)-5-(2,4-disulfophenyl)-2H-tetrazolium. WST-8 can be bio-reduced by dehydrogenases in mitochondria into orange water-soluble formazan products. Briefly, selected cancer cells in the logarithmic growth phase (1 × 10^4) were inoculated in 96-well plates and further cultured in the incubator for 24 h. First, the target compounds were diluted to different concentrations with culture medium with each dilution gradually diluted from the highest concentration solution. Second, the original culture medium was removed after the cells were completely adherent to the wall, and the compounds at various concentrations prepared above were added. In this experiment, a control group and a blank group were set: the former was treated with 0.1% DMSO solution, and the latter was treated with only the culture medium. […] A microplate reader was adopted to record the absorbance at 450 nm, and in this assay, gefitinib, erlotinib, and sorafenib were used as the reference drugs.

The next test has as its system HT-29 cells. The following applies: Homo sapiens, mean ± SD of at least three independent experiments, read-out: Proliferative inhibition (IC50, μM) HT-29.
Description: as §1, §2

A further test has as its system MCF-7 cells. The following applies: Homo sapiens, MCF7, mean ± SD of at least three independent experiments, read-out: Proliferative inhibition (IC50, μM) MCF-7.
Description: as §1, §2

The structures appear in SMILES notation.

Regarding `O=C(Nc1ccc(Cl)c(C(F)(F)F)c1)Nc1ccc2ncnc(Nc3cccc(Br)c3)c2c1` [Compound 7i], the values for the IC50 in the test on A549 cells, in the test on HT-29 cells and with MCF-7 cells were 2.25 ± 0.08 µM, 1.72 ± 0.49 µM and 2.81 ± 0.09 µM, respectively.
